Data taken from ChEMBL document CHEMBL3882724 (2013).

Experiments:
[1] = molecular target: T1, CYP21 (steroid 21-hydroxylase) (Homo sapiens, UniProt P08686); test: Inhibition of human CYP21 transfected in HEK293 cells assessed as decrease in conversion of progesterone to 11-deoxycorticosterone preincubated for 5 hrs followed by progesterone addition measured after 20 hrs by ELISA; type: cell-based; design: concentration or dose not given beside the values; conditions: HEK293 cells transfected with human CYP21, probe progesterone
T1 sequence (P08686 whole entry): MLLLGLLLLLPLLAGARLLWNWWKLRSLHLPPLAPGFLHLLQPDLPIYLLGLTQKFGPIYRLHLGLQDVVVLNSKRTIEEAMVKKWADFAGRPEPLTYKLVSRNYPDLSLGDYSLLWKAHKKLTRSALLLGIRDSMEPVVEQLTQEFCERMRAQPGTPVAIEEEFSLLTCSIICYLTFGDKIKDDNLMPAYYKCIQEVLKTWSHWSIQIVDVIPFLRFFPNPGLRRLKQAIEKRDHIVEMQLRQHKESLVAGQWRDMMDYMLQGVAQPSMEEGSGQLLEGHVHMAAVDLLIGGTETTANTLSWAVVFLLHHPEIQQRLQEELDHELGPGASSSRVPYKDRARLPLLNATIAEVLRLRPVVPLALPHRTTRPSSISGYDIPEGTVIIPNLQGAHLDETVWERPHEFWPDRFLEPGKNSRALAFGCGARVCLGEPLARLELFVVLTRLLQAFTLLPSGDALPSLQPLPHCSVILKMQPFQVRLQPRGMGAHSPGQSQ

[2] = molecular target: T2, Steroid 17-alpha-hydroxylase/17,20 lyase (Homo sapiens, UniProt P05093); test: Inhibition of CYP17 in human testicular microsomes using 17alpha-hydroxypregnenolone as substrate assessed as decrease in DHEA levels at 1 nM after 90 mins by ELISA relative to control; design: species or system Testis
T2 sequence (P05093 whole entry): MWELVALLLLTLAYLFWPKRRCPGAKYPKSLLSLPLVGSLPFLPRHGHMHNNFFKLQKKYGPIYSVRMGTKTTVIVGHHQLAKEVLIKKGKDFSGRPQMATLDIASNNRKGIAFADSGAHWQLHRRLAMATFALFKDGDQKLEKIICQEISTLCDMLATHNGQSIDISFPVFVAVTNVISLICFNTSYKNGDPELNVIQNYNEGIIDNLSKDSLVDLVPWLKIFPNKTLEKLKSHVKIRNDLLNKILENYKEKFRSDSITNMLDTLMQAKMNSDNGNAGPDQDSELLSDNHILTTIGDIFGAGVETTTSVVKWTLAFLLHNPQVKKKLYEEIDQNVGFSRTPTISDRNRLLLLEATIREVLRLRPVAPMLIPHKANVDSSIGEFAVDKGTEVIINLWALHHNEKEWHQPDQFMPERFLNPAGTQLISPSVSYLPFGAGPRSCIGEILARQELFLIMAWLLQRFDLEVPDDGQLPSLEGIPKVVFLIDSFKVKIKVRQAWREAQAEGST

[3] = Half life in human liver microsomes at 1 uM by LC-MS/MS analysis
[4] = molecular target: T2, Steroid 17-alpha-hydroxylase/17,20 lyase; test: Inhibition of CYP17 in human testicular microsomes using 17alpha-hydroxypregnenolone as substrate assessed as decrease in DHEA levels after 90 mins by ELISA; design: species or system Testis
[5] = molecular target: T2, Steroid 17-alpha-hydroxylase/17,20 lyase; test: Inhibition of CYP17 in human testicular microsomes using 17alpha-hydroxypregnenolone as substrate assessed as decrease in DHEA levels at 10 nM after 90 mins by ELISA relative to control; design: species or system Testis; conditions: 1.5 h
[6] = Half life in rat liver microsomes at 1 uM by LC-MS/MS analysis
[7] = molecular target: T2, Steroid 17-alpha-hydroxylase/17,20 lyase; test: Inhibition of CYP17 in human H295R cells assessed as decrease in testosterone levels after 24 hrs by ELISA; type: cell-based

Compound	inhibition at 20 h [1]	IC50 [2]	half-life at 1 µM [3]	IC50 [4]	inhibition at 0.01 µM [5]	half-life at 1 µM [6]	IC50 [7]
C[C@]12C=C/C(=N\O)C=C1C1(CC1)C[C@@H]1[C@@H]2CC[C@]2(C)C(c3cccnc3)=CC[C@@H]12	10 to 50%	> 0.1 µM	–	–	–	–	–
CC1C[C@@H]2[C@H](CC[C@]3(C)C(c4cccnc4)CC[C@@H]23)[C@@]2(C)CCC(=O)C=C12 (stereo not given in full)	–	≤ 0.01 µM	1 to 50 min	–	–	–	–
CC1CC2C3=CC=C(c4cncc(F)c4)[C@@]3(C)CC[C@@H]2[C@@]2(C)CCN(C)C(=O)C=C12 (single isomer, unassigned)	–	> 0.1 µM	–	–	–	–	–
C=C1C[C@H]2C3=CC=C(c4cccnc4)[C@@]3(C)CC[C@@H]2[C@@]2(C)CCC(=O)C=C12	–	0.01 to 0.1 µM	–	–	–	–	–
CCC1C[C@@H]2[C@H](CC[C@]3(C)C(c4cccnc4)=CC[C@@H]23)[C@@]2(C)CCC(=O)C=C12 (stereo not given in full)	10 to 50%	0.01 to 0.1 µM	–	–	–	–	–
C[C@]12CCNC(=O)C[C@@H]1CC[C@@H]1[C@@H]2CC[C@]2(C)C(n3ccnn3)=CC[C@@H]12	–	–	≥ 50 min	≤ 0.011 µM	≥ 80%	10 to 60 min	≤ 0.015 µM
C[C@]12CC[C@H]3[C@@H](C=CC4=C(O)C(=O)CC[C@@]43C)C1=CC=C2c1cccnc1	≥ 50%	> 0.1 µM	1 to 50 min	–	–	–	–
C[C@]12CCC(=O)C=C1C=C[C@@H]1[C@@H]2CC[C@]2(C)C(c3cccnc3)=CC[C@@H]12	≥ 50%	> 0.1 µM	1 to 50 min	–	–	–	–
C[C@]12CCNC(=O)C=C1C1CC1[C@@H]1[C@@H]2CC[C@]2(C)C(c3cncc(F)c3)=CC[C@@H]12 (stereo not given in full)	≥ 50%	–	1 to 50 min	≤ 0.011 µM	–	–	≤ 0.015 µM
C[C@]12CCC(=O)C=C1C=C[C@@H]1[C@@H]2CC[C@]2(C)C(c3cncc(F)c3)=CC[C@@H]12	≥ 50%	–	1 to 50 min	≤ 0.011 µM	–	–	≤ 0.015 µM
C[C@]12CCCC(=O)C1CC[C@@H]1[C@@H]2CC[C@]2(C)C(c3cccnc3)=CC[C@@H]12 (stereo not given in full)	–	–	–	≤ 0.011 µM	≥ 80%	–	≤ 0.015 µM
C[C@]12CC[C@H]3[C@@H](CC4(CC4)C4=CC(=O)CC[C@@]43C)C1=CC=C2c1cccnc1	–	≤ 0.01 µM	–	–	–	–	–
C=C1C[C@H]2C3=CC=C(c4cncc(F)c4)[C@@]3(C)CC[C@@H]2[C@@]2(C)CCC(=O)C=C12	–	0.01 to 0.1 µM	–	–	–	–	–
C=C1C[C@H]2C3=CC=C(c4cccnc4)[C@@]3(C)CC[C@@H]2[C@@]2(C)C=CC(=O)C=C12	–	≤ 0.01 µM	1 to 50 min	–	–	–	–
CC1C[C@@H]2[C@H](CC[C@]3(C)C(c4cccnc4)CC[C@@H]23)[C@@]2(C)CCNC(=O)C=C12 (stereo not given in full)	–	≤ 0.01 µM	1 to 50 min	–	–	–	–
CC(=O)N[C@@H]1CC[C@@]2(C)C(=CC[C@@H]3[C@@H]2CC[C@]2(C)C(c4cccnc4)=CC[C@@H]32)C1	≥ 50%	–	1 to 50 min	≤ 0.011 µM	–	–	≤ 0.015 µM
C[C@]12CCC(=O)C=C1C(F)CC1[C@@H]2CC[C@]2(C)C(c3cccnc3)=CC[C@@H]12 (single isomer, unassigned)	≥ 50%	–	1 to 50 min	≤ 0.011 µM	–	–	≤ 0.015 µM
COc1cncc(C2=CC=C3[C@@H]4CC=C5C[C@@H](O)CC[C@]5(C)[C@H]4CC[C@]23C)c1	–	–	≥ 50 min	≤ 0.011 µM	≥ 80%	≥ 50 min	≤ 0.015 µM
CN1CC[C@@]2(C)C(=CC1=O)C1CC1[C@H]1C3=CC=C(c4cccnc4)[C@@]3(C)CC[C@@H]12 (stereo not given in full)	–	0.01 to 0.1 µM	–	–	–	–	–

Compound	inhibition at 20 h [1]	IC50 [2]	half-life at 1 µM [3]	IC50 [4]	inhibition at 0.01 µM [5]	half-life at 1 µM [6]	IC50 [7]
C[C@]12CC[C@H]3[C@@H](CC(F)C4(O)C[C@@H](O)CC[C@]34C)[C@@H]1CC=C2c1cncc(F)c1 (stereo not given in full)	≥ 50%	–	1 to 50 min	≤ 0.011 µM	–	–	≤ 0.015 µM
C[C@]12CC[C@H]3[C@@H](CC[C@H]4C[C@@H](O)CC[C@@]43C)C1=CC=C2n1ccnc1	–	–	≥ 50 min	≤ 0.011 µM	≥ 80%	10 to 60 min	≤ 0.015 µM
C[C@]12CC[C@H]3[C@@H](CC(CO)C4=CC(=O)CC[C@@]43C)C1=CC=C2c1cccnc1 (stereo not given in full)	≥ 50%	> 0.1 µM	–	≤ 0.011 µM	–	–	–
C[C@]12CC[C@H]3[C@@H](CC=C4C[C@@H](O)CC[C@@]43C)C1=CC=C2c1cncc(F)c1	≥ 50%	–	1 to 50 min	≤ 0.011 µM	–	–	≤ 0.015 µM
C[C@]12CC[C@H]3[C@@H](CC4(CC4)C4=CC(=O)CC[C@@]43C)C1=CC=C2c1cncc(F)c1	–	0.01 to 0.1 µM	–	–	–	–	–
C[C@]12CC[C@H]3[C@@H](CC(C4CC4)C4=CC(=O)CC[C@@]43C)C1=CC=C2c1cccnc1 (stereo not given in full)	10 to 50%	> 0.1 µM	–	–	–	–	–
CC1C[C@@H]2[C@H](CC[C@]3(C)C(c4cncc(F)c4)=CC[C@@H]23)[C@@]2(C)C=CC(=O)C=C12 (stereo not given in full)	≥ 50%	0.01 to 0.1 µM	–	≤ 0.011 µM	–	–	–
C[C@]12CCNC(=O)C=C1CC[C@@H]1[C@@H]2CC[C@]2(C)C(c3cncc(C(F)F)c3)=CC[C@@H]12	≥ 50%	–	1 to 50 min	≤ 0.011 µM	–	–	≤ 0.015 µM
C[C@]12CC(O)CC1CC[C@@H]1[C@@H]2CC[C@]2(C)C(c3cncc(F)c3)=CC[C@@H]12 (stereo not given in full)	10 to 50%	–	≥ 50 min	≤ 0.011 µM	–	–	≤ 0.015 µM
C[C@]12CC(O)CC1CC[C@@H]1[C@@H]2CC[C@]2(C)C(c3cccnc3)=CC[C@@H]12 (stereo not given in full)	≥ 50%	–	1 to 50 min	≤ 0.011 µM	–	–	≤ 0.015 µM
CC1=C2CC[C@H]3C4=CC=C(c5cccnc5)[C@@]4(C)CC[C@@H]3[C@@]2(C)CCC1=O	≥ 50%	> 0.1 µM	–	–	–	–	–
CN1CC[C@@]2(C)C(=CC1=O)CC[C@H]1C3=CC=C(c4cncc(F)c4)[C@@]3(C)CC[C@@H]12	–	> 0.1 µM	–	–	–	–	–
CC(=O)O[C@H]1CC[C@@]2(C)[C@@H](CC[C@@H]3[C@@H]2CC[C@]2(C)C(n4ccnn4)=CC[C@@H]32)C1	–	–	–	≤ 0.011 µM	≥ 80%	–	≤ 0.015 µM
C[C@]12CC[C@H]3[C@@H](CC4CC45C[C@@H](O)CC[C@]35C)[C@@H]1CC=C2c1cccnc1 (stereo not given in full)	≥ 50%	–	1 to 50 min	≤ 0.011 µM	–	–	≤ 0.015 µM
C[C@]12CCC(=O)C=C1C1CC1[C@@H]1[C@@H]2CC[C@]2(C)C(c3cncc(F)c3)=CC[C@@H]12 (stereo not given in full)	≥ 50%	–	1 to 50 min	≤ 0.011 µM	–	–	≤ 0.015 µM
CC1C[C@H]2C3=CC=C(c4cccnc4)[C@@]3(C)CC[C@@H]2[C@@]2(C)CCN(C)C(=O)C=C12 (stereo not given in full)	–	0.01 to 0.1 µM	–	–	–	–	–
C[C@]12CC/C(=N\O)C=C1C1(CC1)C[C@@H]1[C@@H]2CC[C@]2(C)C(c3cccnc3)=CC[C@@H]12	10 to 50%	> 0.1 µM	–	–	–	–	–
C[C@]12CC[C@H](O)CC1=CC[C@@H]1[C@@H]2CC[C@]2(C)C(c3cncc(C(F)F)c3)=CC[C@@H]12	≥ 50%	–	≥ 50 min	≤ 0.011 µM	–	–	≤ 0.015 µM
